Test results as given in patent publication US7473772B2, “Chimeric GB virus B (GBV-B)” (The Board of Regents of The University of Texas System, priority 2003, dated 2009).

Test system: tamarin without a prior history of GBV-B infection
Experiment: Intrahepatic inoculation of synthetic GBV-B RNA into a tamarin; serum GBV-B RNA by real-time quantitative RT-PCR (TaqMan)
Format: in vivo, Saguinus oedipus
Conditions: about 60 μg RNA intrahepatic
Text: Plasmid DNA containing the GBV-B cDNA was purified by isopycnic centrifugation on a CsCl gradient and isolated by ethanol precipitation. The plasmid DNA was linearized at the 3′ terminus of the cDNA insert by digestion with Xho I. Two μg of the linearized DNA was used as template in an in vitro transcription reaction using the Ambion T7 MEGAscript Kit according to the manufacturer's instructions. The integrity of the resultant synthetic RNA product was confirmed by nondenaturing agarose gel electrophoresis.
Approximately 60 μg of RNA transcribed from the GBV-B cDNA clone was diluted in phosphate buffered saline and injected under direct visualization at laparotomy into the liver of a healthy tamarin without a prior history of GBV-B infection (Saguinus oedipus). Serum samples were collected from the animal weekly beginning at 2 weeks post-inoculation and tested for the presence of GBV-B RNA by real-time quantitative RT-PCR (TaqMan® assay).

Substance: GBV-B cDNA clone: synthetic RNA transcribed from the full-length 9.4 kb GBV-B cDNA clone containing the novel 3′ terminal sequence
- GBV-B RNA in serum (week 2 postinoculation): 8.3 × 10^3 Genome equivalents/ml
- GBV-B RNA in serum (week 3 postinoculation): 6.6 × 10^5 Genome equivalents/ml
- GBV-B RNA in serum (week 4 postinoculation): 4.6 × 10^8 Genome equivalents/ml
